Results reported in US20240262860A1, “PENTACYCLIC TRITERPENOID GLYCOSIDE COMPOUND, AND PREPARATION METHOD THEREFOR AND USE THEREOF” (SHANGHAI INSTITUTE OF MATERIA MEDICA, CHINESE ACADEMY OF …, priority 2020, published 2024).
Entries after “also recorded” stand apart in the source; their conditions may differ.

Assays:
influenza virus = format: cell-based; settings: MDCK cells, screening concentration 50 μM, 36 h
MDCK cell = assay: Cytotoxicity in the anti influenza virus assay (MDCK cells); format: cell-based; settings: screening concentration 50 μM
Protocol: CellTiter-Glo® Luminescent Cell Viability Assay
Screening concentration: 50 μM
MDCK cells were laid with 96 well plates (1×10^4/well) and incubated in 37° C. and 5% CO2 incubators for 24 h, then the medicine was added.
After dosing, the 96 well plate was put in the 37° C., 5% CO2 incubator for 36 h, and detected with the microplate reader.

ICR mice = assay: Oral glucose tolerance (OGTT) pharmacodynamic experiment in ICR mice; format: in vivo; settings: for hypoglycemic effect: OGTT; for hypoglycemic activity: oral glucose tolerance, glucose 5 g/kg, compound given 0.5 h before sugar
Protocol: 1. Pharmacodynamic Experiment of Compound on Oral Glucose Tolerance in ICR Mice
After the animals arrived at WuXi AppTec facilities, they were kept in the animal feeding room with strictly controlled environmental conditions. The temperature was kept at 20-24° C. and the humidity was kept at 30-70% in the feeding room. The temperature and humidity of the feeding room were monitored in real time through the temperature and humidity meter, and the temperature and humidity were recorded twice a day (once in the morning and once in the afternoon). The lighting in the animal feeding room was controlled by an electronic timing lighting system, which was turned on for 12 hours every day and turned off for 12 hours (on at 7:00 a.m. and off at 19:00 p.m.). During the experiment, the animals were raised in a single cage and toys were provided for mice in each cage. During the experiment, the animals freely took food (growth/reproduction feed for rats and mice) and water.
After the animals arrived, they can adapt to the environment for 1-2 weeks before conducting the experiment.
1) Preparation of liquid medicine: each compound was prepared on the first day of the experiment, and then stored in a 4° C. refrigerator for use on the next day.
2) Administration: After grouping, animals in each group were administered 0.5 hours before sugar administration.
3) Oral glucose tolerance experiment: sugar was administrated to the animals by gavage 0.5 hour after the end of the animal administration, and the time of sugar administration was recorded as 0 min. The oral dose of glucose was 5 g/kg, 10 ml/kg. The blood glucose of animals was detected before administration, before sugar administration, and 15, 30, 60, 90, and 120 minutes after sugar administration. The blood glucose was detected with a blood glucose meter and the corresponding blood glucose test paper.

[1] = system: intestinal endocrine cell line STC-1 cell; assay: In vitro GLP-1 secretion in STC-1 cells (HTRF kit); format: cell-based; settings: for EC50: 1 h treatment, read-out: EC50 of promoting GLP-1 secretion in vitro
Protocol: Cell line: intestinal endocrine cell line STC-1 cell
Positive control: INT777 (TGR5 receptor agonist)
Others: KRBH buffer, BSA, DPP4 inhibitor
STC-1 cells were seeded with a certain density. After the cells adhered to the wall overnight, they were starved with KRBH buffer, while BSA was used to maintain nutrition, and degradation of GLP-1 was reduced with DPP4 inhibitors. After 1 h, they were replaced with glucose free or glucose containing KRBH buffer to stimulate GLP-1 secretion. At the same time, compounds of certain concentrations were added. After 1 h of treatment, supernatant was collected and tested for GLP-1 concentration with HTRF kit. The secretion of LDH was also detected to indicate the toxicity of the compounds.

SARS Cov-2 virus = SARS Cov-2 virus replication inhibition in Vero E6 cells (viral copy number by qPCR); format: cell-based; settings: Severe acute respiratory syndrome coronavirus 2, Vero C1008, MOI 0.05, 24 hours
PK property in mice = format: in vivo, ICR (CD-1) mice; settings: PO 25 mg/kg, IV 3 mg/kg
Protocol: Species/strain: ICR (CD-1) mice
Gender/number of rats: male (n=6)
Weight (g): male (20-24 g)
Type of diet: standard rodent diet • freely drink • Fasted for 12 hours before administration and keeping fasting for 2 hours.
Feeding: animal room environment control (target conditions: temperature 18 to 29° C., relative humidity 30 to 70%. Temperature and relative humidity were monitored every day. The electronic time control lighting system was used to provide 12 hours of light/12 hours of dark cycle.

## CC1(C)CC[C@]2(C(=O)O)CC[C@]3(C)C(=CCC4[C@@]5(C)CC[C@H]([C@@H](O)[C@@H]6OC(CO)[C@@H](O)C(O)C6O)C(C)(C)C5CC[C@]43C)C2C1 (stereo partly drawn) [Example A2, (3S,5S,8R,9R,10S,14R,17R,18S)-Oleanolicacid-3-(1′R)-(hydroxyl)methyl-β-D-glucopyranoside]
Influenza virus
  virus inhibition rate: same virus inhibition rate
MDCK cell
  cytotoxicity: low cytotoxicity; also recorded: lower cytotoxicity than that of ribavirin

## CC1(C)CC[C@]2(C(=O)O)CC[C@]3(C)C(=CCC4[C@@]5(C)CC[C@H]([C@@H](O)[C@@H]6OC(C(=O)O)[C@@H](O)C(O)C6O)C(C)(C)C5CC[C@]43C)C2C1 (stereo partly drawn) [Example A25, (3S,5S,8R,9R,10S,14R,17R,18S)-Oleanolic acid-3-(1′R)-(hydroxy)methyl-β-D-glucurouopyranoside]
ICR mice; 25 mg/kg
  hypoglycemic effect: obvious hypoglycemic effect
ICR mice; 50 mg/kg
  hypoglycemic effect: further enhanced hypoglycemic effect
ICR mice
  hypoglycemic activity: good in vivo hypoglycemic effect; also recorded: best hypoglycemic activity

## CC1O[C@@H]([C@H](O)[C@H]2CC[C@@]3(C)C(CC[C@]4(C)C3CC=C3C5CC(C)(C)CC[C@]5(C(=O)O)CC[C@]34C)C2(C)C)C(O)C(O)[C@H]1O (stereo partly drawn) [Example A43, (3S,5S,8R,9R,10S,14R,17R,18S)-Oleanolic acid-3-(1'S)-(hydroxy)methyl-α-L-rhamnopyranoside]
ICR mice; 25 mg/kg
  hypoglycemic effect: obvious hypoglycemic effect
ICR mice; 50 mg/kg
  hypoglycemic effect: further enhanced hypoglycemic effect
ICR mice
  hypoglycemic activity: good in vivo hypoglycemic effect; also recorded: best hypoglycemic activity

## CC1(C)CC[C@]2(C(=O)O)CC[C@]3(C)C(=CCC4[C@@]5(C)CC[C@@H](C[C@@H]6OC(C(=O)O)[C@@H](O)C(O[C@@H]7OC[C@@H](O)C(O)C7O)C6O)C(C)(C)C5CC[C@]43C)C2C1 (stereo partly drawn) [Example A64, (3R,5S,8R,9R,10S,14R,17R,18S)-Oleanolic acid-3-methyl-β-D-xylopyranosyl(1→3)-β-D-glucurouopyranoside]
[1]
  in vitro effect of promoting GLP-1 secretion: good in vitro effect of promoting GLP-1 secretion
  EC50: 7.23 µM

## CC1(C)CC[C@]2(C(=O)OCn3cccn3)CC[C@]3(C)C(=CCC4[C@@]5(C)CC[C@H]([C@@H](O)[C@@H]6OC(C(=O)O)[C@@H](O)C(O)C6O)C(C)(C)C5CC[C@]43C)C2C1 (stereo partly drawn) [Example A104, (3S,5S,8R,9R,10S,14R,17R,18S)-28-O-(Pyrazol-1″′-yl)methyl oleanolic acid-3-(1′R)-(hydroxy)methyl-β-D-glucurouopyranoside]
SARS Cov-2 virus
  EC50: 3.6 µM
PK property in mice
  PK properties: good PK properties

## CNC(=O)C1O[C@@H]([C@H](O)[C@H]2CC[C@@]3(C)C(CC[C@]4(C)C3CC=C3C5CC(C)(C)CC[C@]5(C(=O)O)CC[C@]34C)C2(C)C)C(O)C(O)[C@@H]1O (stereo partly drawn) [Example A114, (3S,5S,8R,9R,10S,14R,17R,18S)-Oleanolic acid-3-(1′R)-(hydroxy)methyl-6″-methylamino-β-D-glucurouopyranoside]
SARS Cov-2 virus
  EC50: 4.6 µM

## CC[C@H]1[C@@H](O)[C@@H]2[C@H](C[C@H](O)[C@]3(C)[C@@H]([C@H](C)C[C@H](C)C(=O)O)CC[C@@H]23)[C@@]2(C)CC[C@@H](O)C[C@@H]12 [INT777, reference compound]
[1]
  EC50: 22.8 µM
